Data set [1] can be described thus: Selectivity index, ratio of IC50 for rat L6 cells to IC50 for bloodstream forms of Trypanosoma brucei rhodesiense STIB 900. The following applies: read-out: Ratio IC50. It is filed as toxicity, cell-based.
The test system of data set [2] is Trypanosoma brucei rhodesiense. In words: Antiparasitic activity against bloodstream forms of Trypanosoma brucei rhodesiense STIB 900 assessed as growth inhibition after 72 hrs by resazurin assay. The note with it: STIB 900, 72 h. It is filed as functional, organism-based.
The next data set deals with Plasmodium falciparum. In words: Antiplasmodial activity against chloroquine and pyrimethamine resistant Plasmodium falciparum K1 infected in human erythrocytes after 48 hrs by [3H]hypoxanthine incorporation assay. It is filed as functional, organism-based.
Data set [3] in a line: Selectivity index, ratio of IC50 for rat L6 cells to IC50 for chloroquine and pyrimethamine resistant Plasmodium falciparum K1 infected in human erythrocytes. It is filed as toxicity, cell-based. The note with it: read-out: Ratio IC50.
The subject of another data set is L6. Kind of data set: Cytotoxicity against rat L6 cells by alamar blue assay. It is filed as cell-based.

Take `CC(C)NC(=N)c1ccc(Nc2nc3cc(C(=N)NC(C)C)ccc3[nH]2)cc1`: the selectivity ratio in data set [1] amounted to 4000; in data set [3], 660. For the same molecule, the IC50 in data set [2] was 0.027 µM; in the data set on Plasmodium falciparum, 0.164 µM; in the data set on L6, 108 µM.

On to `N=C(N)c1ccc(Nc2nc3cc(Cl)ccc3[nH]2)cc1`, for which the selectivity ratio in data set [1] stood at 2.4; in data set [3], 53. Further, the IC50 in data set [2] came out at 19.6 µM; in the data set on Plasmodium falciparum, 0.877 µM; in the data set with L6 it was 46.4 µM.

As for `N=C(N)c1ccc2[nH]c(Nc3ccc(Cl)c(Cl)c3)nc2c1`, the values for the selectivity ratio in data set [1] and in data set [3] were 1.8 and 280, respectively. Also, the results for the IC50 (in data set [2]; in the data set with Plasmodium falciparum; in the data set on L6) were 21.8 µM, 0.138 µM and 39.1 µM, respectively.

On to `N=C(N)c1ccc(Nc2nc3ccccc3[nH]2)cc1`, for which the selectivity ratio worked out at 7.7 in data set [1] and 37 in data set [3]. Besides, the IC50 in data set [2] is 15.8 µM; with Plasmodium falciparum it was 3.29 µM; with L6 it was 123 µM.

`N=C(N)c1ccc2[nH]c(Nc3ccc(Cl)cc3)nc2c1`: the selectivity ratio in data set [1] turned out to be 2.4; in data set [3], 60. The half-inhibitory concentration (IC50) in data set [2] came to 17 µM; with Plasmodium falciparum it was 0.688 µM; in the data set with L6, 41.6 µM.

Regarding `Cc1cc2[nH]c(Nc3ccc(C(=N)N)cc3)nc2cc1Cl`, the selectivity ratio in data set [1] turned out to be 1.1; in data set [3], 29. In addition, the IC50 in data set [2] worked out at 20.7 µM; with Plasmodium falciparum, 0.795 µM; with L6, 23.2 µM.

As for `N=C(N)c1ccc(Nc2nc3cc(C(=N)N)ccc3[nH]2)cc1`, the selectivity ratio in data set [1] was determined as 22600; in data set [3], 1560. The IC50 is 0.00466 µM in data set [2], 0.0675 µM in the data set with Plasmodium falciparum and 105 µM in the data set with L6.

For the molecule `N=C(N)c1ccc(Nc2nc3cc(C(F)(F)F)ccc3[nH]2)cc1`, the selectivity ratio in data set [1] was determined as 2; in data set [3], 49. Also, the 50% inhibitory concentration (IC50) in data set [2] was determined as 20.9 µM; in the data set with Plasmodium falciparum it was 0.853 µM; in the data set on L6 it was 41.4 µM.

Turning to `N=C(NC1CCCCC1)c1ccc(Nc2nc3cc(C(=N)NC4CCCCC4)ccc3[nH]2)cc1`, the selectivity ratio in data set [1] was found to be 12500; in data set [3] it was 1390. Besides, the figures for the IC50 (in data set [2]; with Plasmodium falciparum; with L6) were 0.0051 µM, 0.0459 µM and 63.7 µM, respectively.

On to `N=C(N)c1ccc2[nH]c(Nc3ccccc3)nc2c1`, for which the values for the selectivity ratio in data set [1] and in data set [3] were 4.3 and 43, respectively. Moreover, the IC50 was 54.7 µM in data set [2], 5.46 µM in the data set with Plasmodium falciparum and 237 µM in the data set on L6.

`CCC(C)NC(=N)c1ccc(Nc2nc3cc(C(=N)NC(C)CC)ccc3[nH]2)cc1` (stereo not given): the selectivity ratio in data set [1] turned out to be 2060; in data set [3] it was 320. The IC50 was 0.0455 µM in data set [2], 0.294 µM with Plasmodium falciparum and 93.6 µM in the data set on L6.

For the molecule `CC(C)CNC(=N)c1ccc(Nc2nc3cc(C(=N)NCC(C)C)ccc3[nH]2)cc1`, the selectivity ratio in data set [1] came to 8880; in data set [3] it was 925. For the same molecule, the IC50 was 0.0095 µM in data set [2], 0.0913 µM with Plasmodium falciparum and 84.4 µM in the data set with L6.

Source of the values: ChEMBL document CHEMBL3826916, “Synthesis and potent antiprotozoal activity of mono/di amidino 2-anilinobenzimidazoles versus Plasmodium falciparum and Trypanosoma brucei rhodesiense” (Bioorg Med Chem, 2016).
